Results: patent publication US8557764B2, “Methods of modulating immune function” (The Regents of the University of Colorado, a body corporate, priority 2007, dated 2013)
No end group written: not given here. *: point of attachment. Biotin = O=C1N[C@H]2[C@H](CS[C@H]2CCCCC(=O)*)N1

Columns and labels:
[1] = relative to cyclosporin; cited from earlier work
[2] = test system: cell surface CLIP on Raji or Daudi cells; experiment: MKN1 (bioCLIP) effect on cell surface CLIP levels (flow cytometry); type: cell-based, human; conditions: 24 and 48 hours
Procedure: (§1) The ability of MKN1 (bioCLIP) to alter cell surface CLIP and CD74 levels was determined using Raji or Daudi cells.
(§2) Data were analyzed by histogram with Y axis represents cell number of the 5000 live cells versus the X axis which is a reflection of relative FITC fluorescence with either antibodies to CLIP or CD74. The distance between the histogram from the isotype control staining versus the histogram reflecting the specific stain and is a measure of level of cell surface CLIP or CD74 when staining a population of live Raji or Daudi cells.
(§3) Cell Culture Conditions: The Raji and Daudi cell lines were purchased from American Type Culture Collection, were thawed, and grown in RPMI 1640 medium supplemented with standard supplements, including 10% fetal calf serum, gentamycin, penicillin, streptomycin, sodium pyruvate, HEPES buffer, 1-glutamine, and 2-ME.
(§4) Protocol: Cells were plated into a 12 well plate with 3 mls total volume containing approximately 0.5×10^6/mL for Daudi cells and 0.5×10^6/mL for Raji cells. […]
(§5) Harvested cells were stained using standard staining procedure that called for a 1:100 dilution of Fitc-anti-human CLIP or CD74 antibody (Fitc, Pharmingen, Cat #554647) or isotype control. […] Samples were acquired and analyzed on a Coulter Excel Flow Cytometer.

[3] = test system: cell surface CD74 on Raji or Daudi cells; experiment: MKN1 (bioCLIP) effect on cell surface CD74 levels (flow cytometry); type: cell-based, human; conditions: 24 and 48 hours
Procedure: as §1, §2, §3, §4, §5

[4] = test system: human B cell lines, Raji and Daudi; experiment: Binding of biotinylated synthetic peptide to B cell lines (Streptavidin-PE flow cytometry); type: cell-based; conditions: 50 microMolar
Procedure: (§6) The ability of synthetic peptides to compete with binding of CLIP peptides and result in the cell surface expression of CD1d was determined.
(§7) Results: The results shown in FIG. 5 are expressed in histogram analyses. The Y axis represents cell number of the 5000 live cells versus the X axis which is a reflection of relative Fitc fluorescence versus Streptavidin-PE (eBioscience, Cat. #12-4317) that will bind with high affinity to cell-bound biotinylated peptides. The distance between the histogram from the isotype control staining versus the histogram reflecting the specific stain and is a measure of level of cell surface CD1d.
as §3
(§8) Protocol: Cells were plated into a 12 well plate with 3 mls total volume containing approximately 1.5×10^6/well for Daudi cells and 3.0×10^6/well for Raji cells. Treatment groups included no treatment as control and biotinylated […] […]
(§9) Harvested cells were stained using standard staining procedure that called for a 1:100 dilution of PE anti-CD1d. […] Samples were acquired and analyzed on a Coulter Excel Flow Cytometer.

[5] = test system: cell surface CD1d on Raji and Daudi cells; experiment: Cell surface expression of CD1d after competing peptide treatment (flow cytometry); type: cell-based, human; conditions: 50 microMolar, both cell lines
Procedure: as §6, §7, §3, §8, §9

## C=CC[C@@H]1/C=C(\C)C[C@H](C)C[C@H](OC)[C@H]2O[C@@](O)(C(=O)C(=O)N3CCCC[C@H]3C(=O)O[C@H](/C(C)=C/[C@@H]3CC[C@@H](O)[C@H](OC)C3)[C@H](C)[C@@H](O)CC1=O)[C@H](C)C[C@@H]2OC [FK506, tacrolimus]
[1]
  immunosuppressive activity greater than cyclosporin: 10-100 times

## MKN1: 19 mer, Biotin at N-Terminal = Biotinylated CLIP; SGG GSK MRM ATP LLM QAL Y (SEQ ID NO. 5) (Biotin-SGGGSKMRMATPLLMQALY)
[2]
  cell surface CLIP levels: alters
[3]
  cell surface CD74 levels: alters

## Biotinylated FRIMAVLAS: biotinylated synthetic peptide FRIMAVLAS (SEQ ID NO. 2), also referred to as MKN 5 (also: biotinylated)
[4]; 4 hours, Raji and Daudi
  binding of biotinylated peptide to the cell lines: bound with high affinity
[4]; 24 hours
  binding of biotinylated peptide to the cell lines: Less binding
[5]; 4 hours
  cell surface expression of CD1d: marginally
[5]; 24 hours
  cell surface expression of CD1d: slightly more
